Results reported in the supplement of paper PMC10011410.
± gives the standard deviation of the averaged measurements.

Key:
[1] = tested on: U-2 OS; experiment: intracellular GSH:GSSG ratio (calculated); higher = more reduced glutathione pool; conditions: 24 h
Method: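 Intracellular glutathione in U-2 OS cells after 24 h compound treatment at 5, 10 and 20 uM (some at 40 and 80 uM). Total glutathione and GSSG were measured with the GSH/GSSG-Glo kit, and the GSH:GSSG ratio was calculated. Mean of five technical replicate plates.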

[2] = tested on: U-2 OS; experiment: cell viability (CellTiter-Glo) relative to DMSO (% of control); higher = more viable; conditions: 24 h
Method: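 Cell viability of U-2 OS cells by CellTiter-Glo after 24 h compound treatment at 5, 10 and 20 uM (some at 40 and 80 uM), measured in parallel with the glutathione assay, as percent of DMSO control. Five technical replicate plates, averaged.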

[3] = tested on: U-2 OS; experiment: total intracellular glutathione (GSH + GSSG) relative to DMSO (% of control); higher = more glutathione; conditions: 24 h
Method: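 Total intracellular glutathione (GSH + GSSG) in U-2 OS cells by GSH/GSSG-Glo after 24 h compound treatment at 5, 10 and 20 uM (some at 40 and 80 uM), as percent of DMSO control. Five technical replicate plates, averaged.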

[4] = tested on: U-2 OS; experiment: cell painting activity score (Mahalanobis distance from DMSO wells); higher = stronger morphological phenotype; conditions: 24 h
In short: (§1)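 Images taken on an Opera Phenix of U-2 OS cells stained with MitoTracker, concanavalin A, phalloidin, wheat germ agglutinin, Hoechst and SYTO 14 were processed in CellProfiler, with features normalized to DMSO cells on the same plate. The cells, about 1,500 per well in 384-well plates, had been treated by pin tool for 24 h at 37 °C, usually at six 2-fold concentrations from 20 μM to 625 nM. The activity score measures Mahalanobis distance from DMSO wells, and cell count is expressed relative to DMSO wells. Each value averages four replicate plates.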

[5] = tested on: U-2 OS; experiment: relative cell count vs DMSO (cell painting) (fraction of DMSO control); higher = more cells remaining (less cytotoxic); conditions: 24 h
In short: as §1

[6] = tested on: U-2 OS; experiment: AUC of culture confluence over time (live-cell imaging) (AUC (confluence % x time)); higher = more confluent culture (less growth inhibition)
In short: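 Confluence of U-2 OS cells in F-12K medium with 10% FBS was tracked by live-cell imaging. Cells were seeded at 750 per well in 384-well plates and treated 24 h later by pin tool, with most compounds at 20, 10 and 5 μM and 0.2% DMSO. Cells were kept at 37 °C and imaged every 4 h for up to 60 h on an Incucyte S3 with a 10x objective. The value is the area under the confluence-versus-time curve.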

Row | Structure (SMILES) | intracellular GSH:GSSG ratio ([1]; 5 µM) | intracellular GSH:GSSG ratio ([1]; 10 µM) | intracellular GSH:GSSG ratio ([1]; 20 µM) | intracellular GSH:GSSG ratio ([1]; 40 µM) | intracellular GSH:GSSG ratio ([1]; 80 µM) | cell viability ([2]; 5 µM) | cell viability ([2]; 10 µM) | cell viability ([2]; 20 µM) | cell viability ([2]; 40 µM) | cell viability ([2]; 80 µM) | total intracellular glutathione ([3]; 5 µM) | total intracellular glutathione ([3]; 10 µM) | total intracellular glutathione ([3]; 20 µM) | total intracellular glutathione ([3]; 40 µM) | total intracellular glutathione ([3]; 80 µM) | cell painting activity score ([4]; 0.625 µM) | cell painting activity score ([4]; 1.25 µM) | cell painting activity score ([4]; 2.5 µM) | cell painting activity score ([4]; 5 µM) | cell painting activity score ([4]; 10 µM) | cell painting activity score ([4]; 20 µM) | relative cell count ([5]; 0.625 µM) | relative cell count ([5]; 1.25 µM) | relative cell count ([5]; 2.5 µM) | relative cell count ([5]; 5 µM) | relative cell count ([5]; 10 µM) | relative cell count ([5]; 20 µM) | AUC of culture confluence over time ([6]; 5 µM) | AUC of culture confluence over time ([6]; 10 µM) | AUC of culture confluence over time ([6]; 20 µM) | cell painting activity score ([4]; 40 µM) | cell painting activity score ([4]; 80 µM) | relative cell count ([5]; 40 µM) | relative cell count ([5]; 80 µM)
1 | COc1ccc(/C(Cl)=C(\C=O)c2ccc(OC)cc2)cc1 | 20.2 | 16.5 | 15.7 | 7.85 | 9.31 | 101 ± 3.7 | 102 ± 3.2 | 99.8 ± 6.2 | 77.1 ± 5 | 69.9 ± 4.5 | 125 ± 6.9 | 125 ± 4.8 | 111 ± 2.4 | 76.7 ± 2.6 | 79.8 ± 4.3 | 6.88 | 4.52 | 5.61 | 10.1 | 11.3 | 12 | 1 | 0.996 | 1.01 | 0.987 | 0.98 | 0.996 | 45.3 | 38.1 | 35.7 | – | – | – | –
2 | CN(C)C/C=C/C(=O)Nc1ccc(C(=O)Nc2cccc(Nc3ncc(Cl)c(-c4c[nH]c5ccccc45)n3)c2)cc1 | 2.92 | 3.73 | 6.62 | – | – | 34.1 ± 4.7 | 31 ± 4.3 | 10.8 ± 2.7 | – | – | 26.7 ± 2.8 | 20.6 ± 2.5 | 11.6 ± 2.1 | – | – | 22.6 | 23.3 | 23.3 | 19.2 | 18.5 | 29.4 | 0.429 | 0.45 | 0.407 | 0.251 | 0.152 | 0.164 | – | – | – | – | – | – | –
3 | O=C1CC(Sc2nnnn2-c2ccccc2)C(=O)N1c1ccc([N+](=O)[O-])cc1 (stereo unspecified) | 26 | 17 | 7.14 | – | – | 102 ± 5.5 | 104 ± 5.8 | 46.2 ± 11 | – | – | 117 ± 6.5 | 122 ± 5.5 | 61.8 ± 13 | – | – | 4.41 | 4.65 | 4.9 | 6.88 | 12.5 | 18.1 | 1.06 | 1.07 | 1.12 | 1.01 | 0.828 | 0.677 | – | – | – | – | – | – | –
4 | COc1cccc2c1C(=O)c1c(O)c3c(c(O)c1C2=O)C[C@@](O)(C(=O)CO)C[C@@H]3O[C@H]1C[C@H](N)[C@H](O)[C@H](C)O1 | 12.1 | 13 | 5.76 | – | – | 54.3 ± 2.8 | 38.7 ± 6.3 | 21.7 ± 1.3 | – | – | 51.8 ± 7.2 | 34.9 ± 5.7 | 18.7 ± 1.3 | – | – | 15.7 ± 0.51 | 17.8 ± 2.5 | 18.5 ± 2.1 | 19.7 ± 0.41 | 20.8 ± 0.47 | 24.3 ± 0.053 | 0.473 ± 0.035 | 0.5 ± 0.033 | 0.431 ± 0.044 | 0.404 ± 0.081 | 0.311 ± 0.025 | 0.2492 ± 0.0023 | – | – | – | – | – | – | –
5 | CC1=NN(c2ccc(C(=O)O)cc2)C(=O)/C1=C\c1ccc(-c2cc(C)c(C)cc2[N+](=O)[O-])o1 | 27.1 | 21.9 | 23.1 | 20 | 18.3 | 91.3 ± 6.4 | 91.1 ± 2.4 | 96.4 ± 7.8 | 107 ± 8.1 | 90.6 ± 5.9 | 96 ± 2.5 | 105 ± 3.6 | 101 ± 4 | 102 ± 7.7 | 102 ± 5.6 | 5.05 | 4.06 | 4.65 | 6.01 | 14.4 | 15 | 0.893 | 0.944 | 0.894 | 0.904 | 0.854 | 0.787 | – | – | – | – | – | – | –
6 | C=C(C)[C@@H](CC=C(C)C)C[C@@]12C[C@@H](CC=C(C)C)C(C)(C)[C@@](CC=C(C)C)(C(=O)/C(=C(\O)c3ccc(O)c(O)c3)C1=O)C2=O | 21 | 16.1 | 24.5 | 21.3 | 0.823 | 97 ± 2.7 | 101 ± 5.7 | 86.3 ± 7 | 44.8 ± 18 | 0.589 ± 0.13 | 96.4 ± 3.2 | 89 ± 1.9 | 76.7 ± 6.1 | 53.2 ± 8.8 | 5.32 ± 1.5 | 5.64 | 4.81 | 6.25 | 5.03 | 9.54 | 9.17 | 0.996 | 0.96 | 0.961 | 0.986 | 0.836 | 0.53 | – | – | – | 14.9 | 28.1 | 0.267 | 0.116
